Target: T1, Prolyl 4-hydroxylase subunit alpha-1 (Gallus gallus, UniProt P16924)
T1 sequence (P16924 whole entry): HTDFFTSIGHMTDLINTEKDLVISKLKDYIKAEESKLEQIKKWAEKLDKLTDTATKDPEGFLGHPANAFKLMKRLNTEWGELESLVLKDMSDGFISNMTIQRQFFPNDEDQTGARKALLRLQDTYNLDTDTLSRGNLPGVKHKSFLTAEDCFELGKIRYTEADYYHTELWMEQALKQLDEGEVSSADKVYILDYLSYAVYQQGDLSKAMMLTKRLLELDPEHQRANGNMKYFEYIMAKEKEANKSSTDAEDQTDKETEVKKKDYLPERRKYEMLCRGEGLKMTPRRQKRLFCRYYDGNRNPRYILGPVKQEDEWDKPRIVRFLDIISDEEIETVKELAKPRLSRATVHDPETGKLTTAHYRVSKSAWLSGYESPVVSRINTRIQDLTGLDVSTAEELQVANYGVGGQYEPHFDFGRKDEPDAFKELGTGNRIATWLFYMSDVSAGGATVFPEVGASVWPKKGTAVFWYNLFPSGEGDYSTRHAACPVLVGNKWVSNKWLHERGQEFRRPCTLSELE
Assay: Inhibition Assay
Description: Inhibition assay using procollagen-prolin, 2-oxoglutarate 4-dioxygenase.

| Structure (SMILES) | Ki [µM] |
| --- | --- |
| Oc1ccc(O)cc1 | 14000 |
| O=C(O)c1cccc(O)c1 | > 20000 |
| Oc1ccccc1O [1,2-Dihydroxybenzene, XI] | 25 |
| O=C(O)C(O)c1ccc(O)c(O)c1 (stereo unspecified) [3,4-Dihydroxymandelate, XVI] | 9 |
| O=C(O)c1ccc(O)cc1 [4-Hydroxybenzoate, III] | 3200 |
| O=C1OC(C(O)CO)C(O)C1O (stereo unspecified) [5-(1,2-Dihydroxy-ethyl)-3,4-dihydroxy-dihydro-furan-2-one] | > 20000 |
| O=C(O)[C@H](O)c1ccccc1 [(+)-Mandelate, XXI] | > 20000 |
| O=C(O)c1cc(O)c(O)c(O)c1 [Gallic Acid, F] | 30 |
| O=C(O)Cc1ccccc1 [Phenylacetate, XIX] | > 20000 |
| O=C(O)c1ccccc1O [salicylic acid] | 2300 |

Other lines, results leading:

| Ki [µM] | Structure (SMILES) |
| --- | --- |
| 10200 | Oc1cccc(O)c1 |
| 30 | Oc1cccc(O)c1O |
| 70 | O=C(O)c1cccc(O)c1O [2,3-Dihydroxybenzoate, IV] |
| 1400 | O=C(O)c1cc(O)ccc1O [2,5-Dihydroxybenzoate, VI] |
| 1100 | O=C(O)c1c(O)cccc1O [2,6-Dihydroxybenzoate, VII] |
| 18 | O=C(O)/C=C/c1ccc(O)c(O)c1 [3,4-Dihydroxycinnamate, XVII] |
| 9000 | O=C(O)c1cc(O)cc(O)c1 [3,5-dihydroxybenzoic acid] |
| 13 | O=C(O)CCc1ccc(O)c(O)c1 [3-(3,4-dihydroxyphenyl)propanoic acid] |
| 5 | O=C(O)c1ccc(O)c(O)c1 [Protocatechuic acid (M1)] |
| 9 | O=C(O)Cc1ccc(O)c(O)c1 [SMR000326727] |
| 530 | O=C(O)c1ccc(O)cc1O [beta-Resorcylic acid] |

Reference: BindingDB's records for PubMed 3011801 (University of Oulu, 1986)
